≈ marks a conversion by molar mass, not a printed value.

What all share (format): cell-based
Common to all, as to conditions: 144 hours of incubation, concentration which causes the death of 50% of cell population

One test has as its system HT 29. The experiment in a line: MTT cytotoxicity assay, HT 29 human colon tumor cell line. How it is done: (§1) The compounds of the invention were tested against three human colon tumor cell lines (HT 29, HCT 116 and LoVo). After 144 hours of incubation of the cells with the compound to be tested, the cytotoxicity is evaluated using the MTT assay (Mosman, T. “Rapid Colorimetric Assay for Cellular Growth and Survival: Application to Proliferation and Cytotoxicity Assay”; J. Immunol. Methods, (1983), 65, 66; Green, L. M., “Rapid Colorimetric Assay for Cell Viability; Application to the Quantitation of Cytotoxic and Growth Inhibitory Lymphokines”, J. Immunol. Methods, (1984), 70, 257-268). The results are expressed as IC50 ([…]), that it the concentration of the tested compound which causes the death of 50% of cell population.

The next test relates to HCT 116. Description: MTT cytotoxicity assay, HCT 116 human colon tumor cell line. How it is done:
as §1

Another test deals with LoVo. The experiment in a line: MTT cytotoxicity assay, LoVo human colon tumor cell line. How it is done:
as §1
In general terms: Formazan colour is commonly taken as a measure of viable cells.

As a reminder, the IC50 is the concentration needed to halve the response being measured. Regarding `O=C(NC1=CC(=O)OC1)Nc1ccc(Cl)cc1` [Example 2, 4-[N-(4-chlorophenyl)aminocarbonylamino]-2(5H)-furanone], the values for the IC50 in the test on HT 29, with HCT 116 and in the test on LoVo were 0.032 µg/mL (≈ 0.127 µM), 0.034 µg/mL (≈ 0.135 µM) and 0.01 µg/mL (≈ 0.0396 µM), respectively.

For the compound `CCc1ccc(NC(=O)NC2=CC(=O)OC2)cc1Cl` [Example 3, 4-[N-(4-ethyl-3-chlorophenyl)aminocarbonylamino)-2(5H)-furanone], the IC50 is 0.003 µg/mL (≈ 0.0107 µM) with HT 29, < 0.01 µg/mL with HCT 116 and 0.034 µg/mL (≈ 0.121 µM) in the test on LoVo.

The values are drawn from patent publication US20020058694A1, “Ureido and thioureido derivatives of 4-amino-2(5H)-furanones and 4-amino-2(5H)-thiophenones as antitumor agents” (Roche Diagnostics GmbH, priority 1997, published 2002).
